What all share (type): functional
Assay [1] relates to Acinetobacter calcoaceticus. Nature of the assay: Antibacterial activity against Acinetobacter calcoaceticus OSMPV 113 (Gram negative) strain.
In assay [2] the test system is Escherichia coli. Put plainly: Antibacterial activity against Escherichia coli ATCC 8739(Gram negative) strain.
In assay [3] the test system is Escherichia coli. Put plainly: Antibacterial activity against Escherichia coli ISF 432(Gram negative) strain.
Assay [4] concerns Enterobacter cloacae. Nature of the assay: Antibacterial activity against Enterobacter cloacae OMNFI 174 (Gram negative) strain.
The test system of assay [5] is Klebsiella pneumoniae. Nature of the assay: Antibacterial activity against Klebsiella pneumoniae ATCC 10031 (Gram negative) strain.
For assay [6], the system named is Providencia stuartii. Nature of the assay: Antibacterial activity against Providencia stuartii CNUR 5(Gram negative) strain.
Assay [7] relates to Pseudomonas aeruginosa. Nature of the assay: Antibacterial activity against Pseudomonas aeruginosa ATCC 9027(Gram negative) strain.
Assay [8] relates to Shigella. Nature of the assay: Antibacterial activity against Shigella enteritidis (Gram negative) strain.
For assay [9], the system named is Staphylococcus epidermidis. Nature of the assay: Antibacterial activity against Staphylococcus epidermidis HCF Berset C (Gram positive) strain.
The subject of assay [10] is Staphylococcus epidermidis. Put plainly: Antibacterial activity against Staphylococcus epidermidis CPHL A2 (Gram positive) strain, activity is expressed as log2MIC.
The test system of assay [11] is Staphylococcus aureus. Nature of the assay: Antibacterial activity against Staphylococcus aureus MPR 5 (Gram positive) strain.
The subject of assay [12] is Enterococcus faecalis. Put plainly: Antibacterial activity against Streptococcus faecalis LEP Br (Gram positive) strain.
The subject of assay [13] is Staphylococcus aureus. Nature of the assay: Antibacterial activity against Staphylococcus aureus ATCC 6538 (Gram positive) strain.

Molecules are shown by their SMILES.

Take `CN1CCN(c2cc3c(cc2N)c(=O)c(C(=O)O)cn3C2CC2)CC1`: the Log2 MIC in assay [1] is 2; in assay [2], 9; in assay [3] it was 12; in [4] it was 9; in assay [5], 12; in assay [6], 4. In addition, the “Log2 MIC” value in [7] is 5; in assay [8], 9; in [9], 5; in assay [10], 6; in [11] it was 6; in assay [12], 2. The “Log2 MIC” value in assay [13] came to 6.
Regarding `CN1CCN(c2c(N)c(N)c3c(=O)c(C(=O)O)cn(C4CC4)c3c2F)CC1`, the “Log2 MIC” value is given as 6 in [1]; 12 in [2]; 12 in assay [3]; 10 in assay [4]; 12 in assay [5]; 6 in [6]. Also, the “Log2 MIC” value in assay [7] amounted to 5; in assay [8], 9; in assay [9] it was 5; in assay [10], 5; in assay [11] it was 6; in assay [12], 5. Also, the “Log2 MIC” value in assay [13] came to 6.
As to `CC(C)(C)n1cc(C(=O)O)c(=O)c2cc(N)c(N3CCCC3)cc21`, the “Log2 MIC” value is on record as 3 in assay [1]; 10 in assay [2]; 10 in assay [3]; 3 in assay [4]; 10 in [5]; 1 in assay [6]. Also, the “Log2 MIC” value in assay [7] came to 1; in assay [8], 2; in [9], 4; in assay [10], 4; in assay [11] it was 4; in [12], 0. Also, the “Log2 MIC” value in [13] turned out to be 5.
With `Nc1cc2c(=O)c(C(=O)O)cn(C3CC3)c2cc1NC1CC1`, the “Log2 MIC” value is given as 0 in assay [1]; 6 in [2]; 5 in assay [3]; 1 in [4]; 6 in assay [5]; 0 in [6]. Moreover, the “Log2 MIC” value in [7] came out at 0; in [8], 1; in [9], 0; in [10], 0; in assay [11], 0; in assay [12] it was 0. In assay [13], the “Log2 MIC” value came out at 0.
For `CC(C)(C)n1cc(C(=O)O)c(=O)c2cc(N)c(N3CCSCC3)cc21`, the “Log2 MIC” value is listed as 8 in assay [1]; 11 in assay [2]; 12 in [3]; 6 in [4]; 12 in assay [5]; 5 in assay [6]. The “Log2 MIC” value in assay [7] was 5; in [8], 6; in assay [9], 8; in [10], 8; in assay [11], 9; in [12], 4. For the same compound, the “Log2 MIC” value in [13] is 9.
Regarding `Nc1cc2c(=O)c(C(=O)O)cn(C3CC3)c2cc1N1CCSC1`, the “Log2 MIC” value was 0 in [1]; 8 in [2]; 7 in assay [3]; 3 in [4]; 8 in assay [5]; 0 in assay [6]. Also, the “Log2 MIC” value is 0 in [7]; 2 in [8]; 1 in assay [9]; 1 in [10]; 0 in assay [11]; 0 in [12]. Also, the “Log2 MIC” value in [13] is 1.
As to `Cc1c(N2CC(C)NC(C)C2)c(N)cc2c(=O)c(C(=O)O)cn(C3CC3)c12` (stereo unspecified), the “Log2 MIC” value is 6 in assay [1]; 11 in assay [2]; 12 in [3]; 8 in assay [4]; 12 in [5]; 6 in assay [6]. Besides, the “Log2 MIC” value in [7] is reported as 6; in assay [8], 9; in assay [9], 6; in [10] it was 7; in [11], 7; in assay [12] it was 3. In addition, the “Log2 MIC” value in assay [13] was determined as 7.
As to `CC(C)(C)n1cc(C(=O)O)c(=O)c2cc(N)c(N3CCc4ccccc43)cc21`, the “Log2 MIC” value in assay [1] is reported as 4; in assay [2], 10; in [3], 10; in assay [4], 4; in assay [5] it was 10; in assay [6], 5. Further, the “Log2 MIC” value was 2 in [7]; 4 in assay [8]; 5 in assay [9]; 5 in [10]; 6 in assay [11]; 1 in [12]. The “Log2 MIC” value in assay [13] is 6.
On to `CC1CN(c2cc3c(cc2N)c(=O)c(C(=O)O)cn3C2CC2)CC(C)N1` (stereo unspecified), for which the “Log2 MIC” value in [1] was 4; in [2], 12; in [3], 12; in [4] it was 8; in assay [5], 12; in assay [6] it was 5. Also, the “Log2 MIC” value in [7] was 6; in assay [8] it was 9; in [9], 5; in assay [10], 6; in assay [11], 4; in assay [12], 2. Further, in assay [13], the “Log2 MIC” value was 4.
As to `CN1CCN(c2c(N)cc3c(=O)c(C(=O)O)cn(C4CC4)c3c2F)CC1`, the “Log2 MIC” value in assay [1] is 4; in assay [2], 7; in assay [3], 11; in assay [4], 9; in assay [5] it was 11; in assay [6], 5. Also, the “Log2 MIC” value in assay [7] came to 6; in [8], 8; in [9], 4; in [10] it was 5; in assay [11], 5; in [12], 1. In addition, in [13], the “Log2 MIC” value amounted to 5.
In the case of `CC1CN(c2cc3c(cc2N)c(=O)c(C(=O)O)cn3C2CC2)CCN1` (stereo unspecified), the “Log2 MIC” value was 3 in assay [1]; 12 in [2]; 12 in assay [3]; 9 in assay [4]; 12 in assay [5]; 3 in assay [6]. For the same compound, the “Log2 MIC” value in assay [7] is recorded as 6; in assay [8], 9; in assay [9] it was 5; in assay [10], 5; in [11], 3; in [12], 2. Besides, the “Log2 MIC” value in [13] is 3.
Regarding `CC(C)(C)n1cc(C(=O)O)c(=O)c2cc(N)c(N3CCc4ccccc4C3)cc21`, the “Log2 MIC” value in assay [1] was 6; in assay [2], 10; in assay [3], 10; in assay [4], 4; in assay [5] it was 10; in [6] it was 5. Moreover, the “Log2 MIC” value in [7] was 2; in assay [8] it was 4; in assay [9], 7; in assay [10], 8; in assay [11], 8; in assay [12] it was 4. Also, the “Log2 MIC” value in assay [13] turned out to be 9.

The values are drawn from ChEMBL document CHEMBL1130043, “Chemometric methodologies in a quantitative structure-activity relationship study: the antibacterial activity of 6-aminoquinolones” (1997).
